{"source": "patent US20190374509A1", "about": "“Methods of Using Metamizole for Treatment of Pyrexia in Equines” (Kindred Biosciences, Inc., priority 2018, published 2019)", "format_in_all_cases": "in vivo", "key": {"horses [1]": {"tested_on": "horses", "assay": "Margin of safety study, IV three times daily for 9 days: coagulation panel (prothrombin time, APTT, fibrinogen)", "settings": "for Prothrombin Time LS Means: averaged over time and sex", "protocol": "(§1) A study was conducted to evaluate the margin of safety of metamizole when administered intravenously to horses for 9 days at doses of 0 mg/kg (0×), 30 mg/kg (1×), 60 mg/kg (2×), and 90 mg/kg (3×) of body weight three times daily (TID), every 8 hours±30 min.\nThis was a prospective, blinded, randomized, placebo-controlled, parallel-group laboratory study in research horses. Thirty-two horses were enrolled in the study (Table 1).\n(§2) Treatment phase involved administration of the investigational drug or placebo. The investigational drug was a sterile injectable formulation of dipyrone (Zimeta™, Corden Pharma, Caponago, Italy) (500 mg/mL) in 100 mL glass bottles. The placebo was sterile injectable saline (Nova-Tech Inc, Grand Island, NE) (0.9% sodium chloride) in 500 mL plastic bottles labeled for veterinary use. Dipyrone treatment groups were 30 mg/kg (1×), 60 mg/kg (2×), and 90 mg/kg (3×). Placebo treatment group was saline administered at a volume to match the 3× dipyrone group (0×). The dose was calculated based on body weight and administered three times daily for nine consecutive days. Due to the large volume of injection at the higher dose groups, treatment was administered via indwelling intravenous (IV) catheters. Intravenous catheters were placed using standard techniques. Horses were sedated with xylazine (AnaSed® LA, VetOne, MWI, Boise, Id.) and the skin was desensitized with subcutaneous injection of lidocaine (VetOne, MWI, Boise, Id.). Intravenous catheters were replaced at the discretion of the study director and were maintained with heparinized saline flush prior to and following dose administration.\n(§3) Randomization occurred on Study Day −1. […] .\nFor continuous endpoints with repeated post-treatment measurements (serum chemistry, coagulation, hematology, urinalysis, body weight, body temperature, heart rate and respiratory rate), repeated measurement analysis of covariance (SAS MIXED procedure RMANCOVA) was used to evaluate a model including treatment, time, sex, treatment by sex interaction, treatment by time interaction, and treatment by time by sex three-way interaction as fixed effects. In addition, baseline values were included as a covariate and remained in the model regardless of its significance. Baseline values were defined as the values prior to and nearest to the first dosing. The covariance structures for repeated measures analysis of covariance (RMANCOVA) were selected from compound symmetry (CS) and compound symmetry heterogeneous variances (CSH), since only two post baseline measurements were collected in this study. The Kenward-Roger approximation was used to calculate denominator degrees of freedom for statistical tests. The minimum Akaike Information Criterion was used to select the covariance structure.\nIn Table 6 below the percent of samples in each treatment group that were above the upper reference range limit of 12 seconds is listed for Days 4 and 8."}, "horses [2]": {"tested_on": "horses", "assay": "Margin of safety study, IV three times daily for 9 days: necropsy, organ weights, histopathology", "settings": "for Liver (absolute weight) LS Means / Liver (relative to body weight) LS Means: necropsy", "protocol": "as §1, §2, §3\nFor continuous endpoints with single post-treatment measures (organ weight and organ weight relative to body weight), analysis of variance (ANOVA) was used to evaluate a model including treatment, sex, and treatment by sex interaction as fixed effects. If treatment by sex interaction was significant, within sex pair-wise comparison of each treatment group versus placebo using linear contrasts were performed. If treatment by sex interaction was not significant and treatment effect was significant, pair-wise comparison of each treatment group versus placebo for pooled sex were performed. In particular, sex specific organ weights (ovaries) were analyzed by ANOVA including only treatment as a fixed effect."}, "horses [3]": {"tested_on": "horses", "settings": "8 horses per group", "protocol": "as §1, §2, §3\nAll 32 horses were acclimated prior to study initiation and started the treatment phase healthy. During the study, numerous horses in all groups including placebo developed clinical signs of pneumonia likely due to exposure and incubation of respiratory pathogens prior to the start of the treatment phase. The mean time to development of pneumonia was 6.9 days with a range of 4.3 to 8.3 days. […] The other 31 horses completed the study. At the second gastroscopy examination, completed just prior to the treatment phase, one horse was noted to have purulent material draining from the guttural pouch. […]"}, "[4]": {"settings": "1X, 30 mg/kg IV every 8 hours, Day 4"}, "[5]": {"settings": "1X, 30 mg/kg IV every 8 hours, Day 8"}, "[6]": {"settings": "2X, 60 mg/kg IV every 8 hours, Day 4"}, "[7]": {"settings": "2X, 60 mg/kg IV every 8 hours, Day 8"}, "[8]": {"settings": "3X, 90 mg/kg IV every 8 hours, Day 4"}, "[9]": {"settings": "3X, 90 mg/kg IV every 8 hours, Day 8"}, "[10]": {"settings": "3X, 90 mg/kg IV every 8 hours, Day 8, only 7 samples"}, "[11]": {"settings": "30, 60, 90 mg/kg IV every 8 hours for 9 days vs placebo"}}, "note": "Where “and” joins values, the source holds several entries; their conditions need not be identical. Equal entries are not always repeated. Where two headings read alike, the source gives them in different places."}
{"smiles": "Cc1c(N(C)CS(=O)(=O)O)c(=O)n(-c2ccccc2)n1C", "note": "[dipyrone, [(2,3-dihydro-1,5-dimethyl-3-oxo-2-phenyl-1H-pyrazol-4-yl)methylamino] methanesulfonic acid]", "values": [{"measurement": "Percent of samples with PT >12 sec", "setting": "horses [1]; [4]", "value": 100, "unit": "%"}, {"measurement": "Percent of samples with PT >14 sec", "setting": "horses [1]; [4]", "value": 25, "unit": "%"}, {"measurement": "Prothrombin Time Day 4 Range", "setting": "horses [1]; [4]", "value": "12.6 to 14.6", "unit": "s"}, {"measurement": "Range of PT values >14 sec", "setting": "horses [1]; [4]", "value": "14.1 to 14.6", "unit": "s"}, {"measurement": "Percent of samples with PT >12 sec", "setting": "horses [1]; [5]", "value": 100, "unit": "%"}, {"measurement": "Percent of samples with PT >14 sec", "setting": "horses [1]; [5]", "value": 13, "unit": "%"}, {"measurement": "Prothrombin Time Day 8 Range", "setting": "horses [1]; [5]", "value": "12.3 to 15.2", "unit": "s"}, {"measurement": "Range of PT values >14 sec", "setting": "horses [1]; [5]", "value": "(15.2) sec"}, {"measurement": "Prothrombin Time LS Means", "setting": "horses [1]; 1X, 30 mg/kg IV every 8 hours", "value": "13.374 s and 13.374 ± 0.4062 s"}, {"measurement": "Percent of samples with PT >12 sec", "setting": "horses [1]; [6]", "value": 100, "unit": "%"}, {"measurement": "Percent of samples with PT >14 sec", "setting": "horses [1]; [6]", "value": 13, "unit": "%"}, {"measurement": "Prothrombin Time Day 4 Range", "setting": "horses [1]; [6]", "value": "12.7 to 15.8", "unit": "s"}, {"measurement": "Range of PT values >14 sec", "setting": "horses [1]; [6]", "value": 15.8, "unit": "s"}, {"measurement": "Percent of samples with PT >12 sec", "setting": "horses [1]; [7]", "value": 100, "unit": "%"}, {"measurement": "Percent of samples with PT >14 sec", "setting": "horses [1]; [7]", "value": 50, "unit": "%"}, {"measurement": "Prolongation of PT observed, number of horses", "setting": "horses [1]; [7]", "value": 1}, {"measurement": "Prothrombin Time Day 8 Range", "setting": "horses [1]; [7]", "value": "12.8 to 21.6", "unit": "s"}, {"measurement": "Range of PT values >14 sec", "setting": "horses [1]; [7]", "value": "(14.7-21.6) sec"}, {"measurement": "Prothrombin Time LS Means", "setting": "horses [1]; 2X, 60 mg/kg IV every 8 hours", "value": "14.524 s and 14.524 ± 0.4064 s"}, {"measurement": "Percent of samples with PT >12 sec", "setting": "horses [1]; [8]", "value": 100, "unit": "%"}, {"measurement": "Percent of samples with PT >14 sec", "setting": "horses [1]; [8]", "value": 75, "unit": "%"}, {"measurement": "Prothrombin Time Day 4 Range", "setting": "horses [1]; [8]", "value": "13.4 to 15.9", "unit": "s"}, {"measurement": "Range of PT values >14 sec", "setting": "horses [1]; [8]", "value": "14.6 to 15.9", "unit": "s"}, {"measurement": "Prolongation of PT observed, number of horses", "setting": "horses [1]; [9]", "value": 1}, {"measurement": "Prothrombin Time Day 8 Range", "setting": "horses [1]; [9]", "value": "12.7 to 21.9", "unit": "s"}, {"measurement": "Range of PT values >14 sec", "setting": "horses [1]; [9]", "value": "(14.3-21.9) sec"}, {"measurement": "Percent of samples with PT >12 sec", "setting": "horses [1]; [10]", "value": 100, "unit": "%^4"}, {"measurement": "Percent of samples with PT >14 sec", "setting": "horses [1]; [10]", "value": 71, "unit": "%^4"}, {"measurement": "Prothrombin Time LS Means", "setting": "horses [1]; 3X, 90 mg/kg IV every 8 hours", "value": "14.946 s and 14.946 ± 0.4396 s"}, {"measurement": "Activated partial thromboplastin time (APTT) or fibrinogen", "setting": "horses [1]; [11]", "value": "no statistically significant differences"}, {"measurement": "Effect on prothrombin time (PT)", "setting": "horses [1]; [11]", "value": "statistically significant main treatment effect of prolongation of prothrombin time (PT)"}, {"measurement": "Liver (absolute weight) LS Means", "setting": "horses [2]; 1X, 30 mg/kg IV every 8 hours", "value": 6280.00, "unit": "g"}, {"measurement": "Liver (relative to body weight) LS Means", "setting": "horses [2]; 1X, 30 mg/kg IV every 8 hours", "value": 13.69}, {"measurement": "Liver (absolute weight) LS Means", "setting": "horses [2]; 2X, 60 mg/kg IV every 8 hours", "value": 6892.50, "unit": "g"}, {"measurement": "Liver (relative to body weight) LS Means", "setting": "horses [2]; 2X, 60 mg/kg IV every 8 hours", "value": 15.28}, {"measurement": "Liver (absolute weight) LS Means", "setting": "horses [2]; 3X, 90 mg/kg IV every 8 hours", "value": 7765.21, "unit": "g"}, {"measurement": "Liver (relative to body weight) LS Means", "setting": "horses [2]; 3X, 90 mg/kg IV every 8 hours", "value": 16.38}, {"measurement": "Effect on absolute and relative liver weights", "setting": "horses [2]; [11]", "value": "statistically significant increase in absolute and relative liver weights"}, {"measurement": "Renal, hepatic and gastrointestinal gross necropsy and histopathology evaluation", "setting": "horses [2]; up to 90 mg/kg IV every 8 hours for 9 days", "value": "no significant findings"}, {"measurement": "Nasal Discharge, number of horses", "setting": "horses [3]; 1X, 30 mg/kg IV every 8 hours", "value": 1}, {"measurement": "Nasal Discharge, number of horses", "setting": "horses [3]; 2X, 60 mg/kg IV every 8 hours", "value": 2}, {"measurement": "Nasal Discharge, number of horses", "setting": "horses [3]; 3X, 90 mg/kg IV every 8 hours", "value": 1}]}
